From PMC7224301, “Methodology for the identification of small molecule inhibitors of the Fanconi Anaemia ubiquitin E3 ligase complex” (Scientific Reports, 2020)

Assays:
[1] = system: FANCD2 foci in SUM149 parental cells; experiment: Nuclear FANCD2 foci formation (immunofluorescence), SUM149 parental; type: cell-based, human; settings: for FANCD2 foci: 2 days exposure, DMSO = 3.80; for effect on FANCD2 foci formation: SUM149 parental cells (BRCA1-deficient), 1 µM
Protocol: FANCD2 foci formation is often used as an indicator of FA core complex functionality[40],[43]. Therefore, we selected 11 compounds to test at 1 µM in 384-well format for their ability to reduce FANCD2 foci formation in SUM149 parental BRCA1-deficient cells. […] An inhibitor of the FA pathway could exploit this dependency of FANCD2 activity to synergise with PARP inhibitors.
Nuclear FANCD2 foci were measured in high throughput by quantitating DAPI stained cell nuclei of either SUM149 or SUM149 B1.S* cell lines using automated confocal imaging (CX7 LZR, ThermoFisher Scientific). […] FANCD2 foci were detected with immunofluorescence using rabbit anti-human FANCD2 (abcam, ab108928).

[2] = system: T1, FA core complex-mediated FANCD2 mono-ubiquitination; experiment: FANCD2 mono-ubiquitination proximity assay (AlphaScreen), inhibitor format; type: biochemical, human proteins; Xenopus laevis FANCD2 and FANCI; settings: at 0.3 µM
T1 construct: made in house; host or cells: High-Five insect cells (FANC-B-L-100, FANCD2-FANCI); E. coli BL21 (DE3) (UBE2T); UBE1 and ubiquitin from Boston Biochem
Excerpt: The inhibitor assay includes recombinant ubiquitin, ubiquitin activating enzyme, FANCT, FANC-B-L-100, FANC-C-E-F, FANCI, FANCD2 and dsDNA[41] (Fig. 2a). For the activator assay, the activity stimulating adaptor complex FANC-C-E-F is omitted to give a baseline FANCD2-ubiquitination signal which enables a greater dynamic range to detect activation of the E3 ligase sub complex FANCB-L-100 (Fig. 2b,c). […] The gel-based FANCD2 mono-ubiquitination assay that we published previously[26] was modified to give a chemi-luminescent readout using a proximity assay (Materials and methods) (Fig. 1b). The purified proteins in the mono-ubiquitination assays used for the high-throughput screen are biotinylated-ubiquitin (b-ubiquitin), His-UBE1, FANCT, Flag-FANCB, FANCL, FAAP100, MBP-FANCC, FANCE, FANCF, GST-XlFANCD2 and Flag-XlFANCI. The assay was calibrated for maximal signal to background and for an optimal dynamic range within which small molecule modulators could be detected in a 384-well plate format. […]
For high-throughput screening, FANCD2 mono-ubiquitination was measured with a proximity assay (AlphaScreen, Perkin Elmer). […] The 520–620 nm signal provides a read out of FANCD2 mono-ubiquitination. […] All protein concentrations in the assay were determined by titration of each component for optimal activity (Fig. 2). […]

SUM149 cells = experiment: Synthetic lethal cell assay (SRB cell viability), BRCA1-deficient cells; type: cell-based, human; settings: 10 µM, 72 h
Excerpt: (§1) Therefore, we tested our preliminary inhibitors for the ability to kill BRCA1-deficient cells preferentially over isogenic BRCA1-proficient controls. To achieve this we exploited the triple negative breast cancer cell line SUM149[48] with a homozygous loss of function mutation in BRCA1 (c.2288delT, p.N723fsX13) and the daughter cell line, SUM149.B1.S* with one allele containing a secondary restoration of function mutation (an 80-bp BRCA1 deletion, c.[2288delT;2293del80])[49]. Twenty-five compounds were tested at 10 µM for preferential cytotoxicity in the BRCA1-deficient SUM149 (Fig. 5).
(§2) SUM149 parental cell line and SUM149 B1.S* cell lines[49] were seeded in a 96-well plate with 3000 cells per well. After 24 h, media was removed, and the cells were treated with 10 µM of each compound in triplicate in antibiotic free media and left for 72 h. Cell were fixed with 1% trichloroacetic acid and stained with sulphorhodamine B (SRB). Absorbance of wells were read at 550 nm.

SUM149.B1.S* cells = experiment: Synthetic lethal cell assay (SRB cell viability), BRCA1-proficient control cells; type: cell-based, human; settings: SUM149.B1.S* (BRCA1 reversion), 10 µM, 72 h
Excerpt: as §1, §2

T1 sequence (Q9NW38 whole entry): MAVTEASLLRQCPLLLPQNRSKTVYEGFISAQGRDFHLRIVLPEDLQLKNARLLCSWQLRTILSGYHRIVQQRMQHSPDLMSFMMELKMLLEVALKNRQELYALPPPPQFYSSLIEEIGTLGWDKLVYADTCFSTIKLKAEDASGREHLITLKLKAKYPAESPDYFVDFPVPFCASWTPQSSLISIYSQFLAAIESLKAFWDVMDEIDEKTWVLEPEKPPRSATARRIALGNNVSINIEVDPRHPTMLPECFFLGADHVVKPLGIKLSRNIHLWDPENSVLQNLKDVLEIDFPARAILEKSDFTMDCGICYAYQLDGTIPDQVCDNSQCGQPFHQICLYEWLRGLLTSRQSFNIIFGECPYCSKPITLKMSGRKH
T1 sequence (Q8NB91 whole entry, further chain): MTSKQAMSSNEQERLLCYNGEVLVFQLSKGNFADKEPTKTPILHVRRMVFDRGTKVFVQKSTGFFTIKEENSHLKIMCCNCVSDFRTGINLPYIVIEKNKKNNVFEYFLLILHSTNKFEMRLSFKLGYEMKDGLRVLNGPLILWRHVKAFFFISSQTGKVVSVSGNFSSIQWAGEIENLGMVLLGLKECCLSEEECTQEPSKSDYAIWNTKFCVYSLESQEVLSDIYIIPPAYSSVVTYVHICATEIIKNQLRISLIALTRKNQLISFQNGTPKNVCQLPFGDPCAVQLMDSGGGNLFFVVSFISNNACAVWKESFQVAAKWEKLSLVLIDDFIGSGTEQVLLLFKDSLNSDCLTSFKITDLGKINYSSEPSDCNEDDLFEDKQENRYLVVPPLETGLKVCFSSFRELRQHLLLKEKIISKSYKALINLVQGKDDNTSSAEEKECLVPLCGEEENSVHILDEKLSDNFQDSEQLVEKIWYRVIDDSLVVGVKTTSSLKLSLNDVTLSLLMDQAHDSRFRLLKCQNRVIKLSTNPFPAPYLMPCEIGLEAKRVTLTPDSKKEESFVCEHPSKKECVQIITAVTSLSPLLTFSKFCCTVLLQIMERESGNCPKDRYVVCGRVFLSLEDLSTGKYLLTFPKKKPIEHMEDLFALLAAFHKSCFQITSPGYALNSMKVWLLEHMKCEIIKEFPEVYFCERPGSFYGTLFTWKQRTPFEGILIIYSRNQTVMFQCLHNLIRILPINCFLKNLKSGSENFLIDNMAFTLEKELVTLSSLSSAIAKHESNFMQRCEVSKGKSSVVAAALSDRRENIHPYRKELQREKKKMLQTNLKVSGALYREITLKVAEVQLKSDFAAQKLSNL
T1 sequence (Q0VG06 whole entry, further chain): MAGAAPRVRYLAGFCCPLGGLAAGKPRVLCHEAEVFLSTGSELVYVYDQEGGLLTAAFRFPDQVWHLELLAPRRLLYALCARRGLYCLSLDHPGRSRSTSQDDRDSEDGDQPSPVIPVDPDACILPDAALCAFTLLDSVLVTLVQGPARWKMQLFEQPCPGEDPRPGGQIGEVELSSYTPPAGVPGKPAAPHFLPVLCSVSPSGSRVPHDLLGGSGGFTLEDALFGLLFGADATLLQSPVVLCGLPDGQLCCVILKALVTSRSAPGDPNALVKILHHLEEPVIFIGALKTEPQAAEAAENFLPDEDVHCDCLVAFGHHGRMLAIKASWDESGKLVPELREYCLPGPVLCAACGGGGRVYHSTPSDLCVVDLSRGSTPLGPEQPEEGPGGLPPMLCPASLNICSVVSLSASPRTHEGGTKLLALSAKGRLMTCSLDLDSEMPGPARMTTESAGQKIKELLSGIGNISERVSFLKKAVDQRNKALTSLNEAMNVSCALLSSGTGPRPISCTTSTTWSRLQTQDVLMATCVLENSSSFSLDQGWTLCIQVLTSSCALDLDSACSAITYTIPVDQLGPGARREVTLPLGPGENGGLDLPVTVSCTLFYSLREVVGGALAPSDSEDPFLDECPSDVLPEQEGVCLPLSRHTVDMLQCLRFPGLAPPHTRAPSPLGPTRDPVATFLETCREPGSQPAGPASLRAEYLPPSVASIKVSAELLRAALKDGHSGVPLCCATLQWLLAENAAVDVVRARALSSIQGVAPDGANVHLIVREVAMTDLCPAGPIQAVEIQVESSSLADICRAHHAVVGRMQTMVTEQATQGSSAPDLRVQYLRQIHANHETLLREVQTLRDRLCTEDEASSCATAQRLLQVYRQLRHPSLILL
T1 sequence (Q00597 whole entry, further chain): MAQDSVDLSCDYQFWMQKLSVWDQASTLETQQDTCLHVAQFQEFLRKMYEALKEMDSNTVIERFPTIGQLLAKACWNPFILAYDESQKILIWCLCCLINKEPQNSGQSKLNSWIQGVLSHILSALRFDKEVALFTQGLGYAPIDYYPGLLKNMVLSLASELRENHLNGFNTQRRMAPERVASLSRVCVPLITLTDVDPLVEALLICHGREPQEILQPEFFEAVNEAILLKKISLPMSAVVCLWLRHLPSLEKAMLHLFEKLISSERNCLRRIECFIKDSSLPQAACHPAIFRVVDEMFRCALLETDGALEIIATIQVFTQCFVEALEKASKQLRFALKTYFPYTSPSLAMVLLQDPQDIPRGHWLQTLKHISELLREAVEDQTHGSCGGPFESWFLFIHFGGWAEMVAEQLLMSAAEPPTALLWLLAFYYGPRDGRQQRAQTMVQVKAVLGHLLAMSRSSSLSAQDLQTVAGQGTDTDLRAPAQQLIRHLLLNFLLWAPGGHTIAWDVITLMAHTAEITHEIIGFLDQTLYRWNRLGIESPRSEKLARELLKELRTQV
T1 sequence (Q9HB96 whole entry, further chain): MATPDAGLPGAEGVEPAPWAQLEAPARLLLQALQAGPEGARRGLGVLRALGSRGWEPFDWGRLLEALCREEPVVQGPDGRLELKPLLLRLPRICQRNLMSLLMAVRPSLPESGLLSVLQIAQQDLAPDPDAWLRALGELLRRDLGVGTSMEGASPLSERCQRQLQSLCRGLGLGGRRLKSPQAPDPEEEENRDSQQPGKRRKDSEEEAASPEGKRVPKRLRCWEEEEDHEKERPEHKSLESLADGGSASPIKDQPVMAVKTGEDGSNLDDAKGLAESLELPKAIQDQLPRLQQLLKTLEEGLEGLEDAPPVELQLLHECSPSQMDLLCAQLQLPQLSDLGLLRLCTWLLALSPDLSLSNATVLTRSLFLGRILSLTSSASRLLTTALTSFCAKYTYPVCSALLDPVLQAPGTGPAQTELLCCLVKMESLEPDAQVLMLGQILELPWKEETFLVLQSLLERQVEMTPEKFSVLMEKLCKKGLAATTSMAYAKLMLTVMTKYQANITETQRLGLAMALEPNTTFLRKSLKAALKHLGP
T1 sequence (Q9NPI8 whole entry, further chain): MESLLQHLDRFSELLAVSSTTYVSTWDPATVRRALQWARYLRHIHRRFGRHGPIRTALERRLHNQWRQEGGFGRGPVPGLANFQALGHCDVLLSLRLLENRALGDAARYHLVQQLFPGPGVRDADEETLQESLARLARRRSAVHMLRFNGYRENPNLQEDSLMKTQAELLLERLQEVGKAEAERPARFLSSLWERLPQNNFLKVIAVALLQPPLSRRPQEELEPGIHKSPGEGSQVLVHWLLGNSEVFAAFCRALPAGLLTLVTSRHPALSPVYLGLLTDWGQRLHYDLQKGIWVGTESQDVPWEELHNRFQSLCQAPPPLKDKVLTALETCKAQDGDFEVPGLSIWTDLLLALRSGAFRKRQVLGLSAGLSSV

Structure (SMILES)	FANCD2 foci ([1]; SUM149 parental cells)	effect on FANCD2 foci formation [1]	further results
CO[C@@]12[C@H](COC(N)=O)C3=C(C(=O)C(C)=C(N)C3=O)N1C[C@@H]1N[C@@H]12 [MMC, mitomycin C]	5.45	–	–
NS(=O)(=O)OC[C@H]1C[C@@H](Nc2ccnc3cc(-c4cccc(SC(F)(F)F)c4)nn23)[C@H](O)[C@@H]1O [TAK243]	0.28	–	inhibition of the FANCD2 mono-ubiquitination reaction [2]: > 50%; toxicity in the foci assay ([1]; SUM149 parental cells): highly toxic
NC(=O)c1cccc2cn(-c3ccc([C@@H]4CCCNC4)cc3)nc12 [niraparib]	–	increased FANCD2 foci formation	–
O=C(c1cc(Cc2n[nH]c(=O)c3ccccc23)ccc1F)N1CCN(C(=O)C2CC2)CC1 [olaparib]	–	increased FANCD2 foci formation	survival (SUM149 cells): 33.3%; survival (SUM149.B1.S* cells): 78.1%
CNCc1ccc(-c2[nH]c3cc(F)cc4c3c2CCNC4=O)cc1 [rucaparib]	–	increased FANCD2 foci formation	–
C[C@]1(c2nc3c(C(N)=O)cccc3[nH]2)CCCN1 [veliparib]	–	increased FANCD2 foci formation	–
